According to ChEMBL document CHEMBL1131886 (Bioorg Med Chem Lett, 1999):

What was measured:
[1] = molecular target: T1, 5-hydroxytryptamine receptor 1A (Homo sapiens, UniProt P08908); experiment: Stimulation of [35S]- GIPyS binding to cloned human 5-hydroxytryptamine 1A receptor stably expressed in HeLa cells; type: cell-based
T1 sequence (P08908 whole entry): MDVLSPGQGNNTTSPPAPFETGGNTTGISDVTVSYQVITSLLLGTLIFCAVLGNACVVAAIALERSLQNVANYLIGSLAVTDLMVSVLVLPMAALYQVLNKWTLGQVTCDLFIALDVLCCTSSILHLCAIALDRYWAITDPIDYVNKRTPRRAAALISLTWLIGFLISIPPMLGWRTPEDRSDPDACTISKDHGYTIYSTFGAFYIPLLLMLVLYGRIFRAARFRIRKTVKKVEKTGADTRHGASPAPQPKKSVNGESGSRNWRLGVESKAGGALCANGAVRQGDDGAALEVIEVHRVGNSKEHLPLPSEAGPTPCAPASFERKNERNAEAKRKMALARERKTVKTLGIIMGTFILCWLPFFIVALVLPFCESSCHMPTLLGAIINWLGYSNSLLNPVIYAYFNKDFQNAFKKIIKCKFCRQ

[2] = molecular target: T2, 5-hydroxytryptamine receptor 1A (Homo sapiens) (UniProt P08908); experiment: Percent efficacy against human 5-hydroxytryptamine 1A receptor relative to maximal 5-HT response; type: functional
T2 sequence (whole entry): T1 sequence (P08908 whole entry)

[3] = molecular target: T1, 5-hydroxytryptamine receptor 1A; experiment: Displacement of specific [3H]- 5-HT binding to cloned human 5-hydroxytryptamine 1A receptor stably expressed in HeLa cells; type: cell-based
[4] = molecular target: Sodium-dependent serotonin transporter (Rattus norvegicus, UniProt P31652); experiment: Displacement of specific [3H]- citalopram binding to 5-HT uptake site in rat whole cortex
Sodium-dependent serotonin transporter, sequence (P31652 whole entry): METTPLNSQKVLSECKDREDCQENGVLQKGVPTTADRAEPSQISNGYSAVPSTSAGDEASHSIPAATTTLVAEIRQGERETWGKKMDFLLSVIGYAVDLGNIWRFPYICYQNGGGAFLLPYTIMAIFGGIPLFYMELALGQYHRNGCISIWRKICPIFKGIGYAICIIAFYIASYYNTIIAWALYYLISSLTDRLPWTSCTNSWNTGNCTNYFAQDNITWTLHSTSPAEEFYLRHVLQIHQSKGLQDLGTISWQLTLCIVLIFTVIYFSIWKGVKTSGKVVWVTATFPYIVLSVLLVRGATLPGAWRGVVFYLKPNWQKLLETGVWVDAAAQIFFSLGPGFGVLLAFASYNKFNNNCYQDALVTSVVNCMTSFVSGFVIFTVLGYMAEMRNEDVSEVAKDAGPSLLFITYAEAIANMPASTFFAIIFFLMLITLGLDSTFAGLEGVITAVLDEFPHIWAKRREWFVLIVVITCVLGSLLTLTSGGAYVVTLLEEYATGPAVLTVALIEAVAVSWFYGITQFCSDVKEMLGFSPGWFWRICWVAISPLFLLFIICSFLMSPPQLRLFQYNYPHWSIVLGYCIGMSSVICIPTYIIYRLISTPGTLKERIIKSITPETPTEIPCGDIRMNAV

[5] = molecular target: T1, 5-hydroxytryptamine receptor 1A; experiment: Stimulation of [35S]- […] binding to cloned human 5-hydroxytryptamine 1A receptor stably expressed in HeLa cells; Inverse; type: cell-based
[6] = molecular target: T2, 5-hydroxytryptamine receptor 1A (Homo sapiens); experiment: Percent efficacy against cloned human 5-hydroxytryptamine 1A receptor normalized to the maximal 5-HT response; type: functional

Compound | EC50 [1] | Efficacy [2] | Ki [3] | Ki [4] | EC50 [5] | Efficacy [6]
CCc1cccc(OC[C@@H](O)CN2CCC3(CC2)OCc2c3ccc3ccccc23)c1 | 3.3 nM | 61% | 1.7 nM | 87 nM | – | –
O[C@H](COc1ccccc1)CN1CCC2(CC1)OCc1c2ccc2ccccc12 | 1.2 nM | 81% | 1.1 nM | 50 nM | – | –
OC(CCc1ccccc1)CN1CCC2(CC1)OCc1c2ccc2ccccc12 (stereo not drawn) | 37 nM | 87% | 8.3 nM | 10 nM | – | –
c1ccc(CCCCN2CCC3(CC2)OCc2c3ccc3ccccc23)cc1 | > 10000 nM | – | 72 nM | 28 nM | – | –
OC(COc1cc(F)cc2c1OCCC2)CN1CCC2(CC1)OCc1c2ccc2ccccc12 (stereo not drawn) | – | – | 5.5 nM | 72 nM | Inverse agonist | –
O=C1CCc2c(F)ccc(OCC(O)CN3CCC4(CC3)OCc3c4ccc4ccccc34)c21 (stereo not drawn) | 3.5 nM | – | 2.3 nM | 45 nM | – | 65%
CC(C)NCC(O)COc1cccc2[nH]ccc12 (stereo not drawn) | – | 36% | – | – | – | –
OC(COCc1ccccc1)CN1CCC2(CC1)OCc1c2ccc2ccccc12 (stereo not drawn) | 31 nM | 108% | 2.2 nM | 83 nM | – | –
OC(COc1ccc(F)c2c1OCCC2)CN1CCC2(CC1)OCc1c2ccc2ccccc12 (stereo not drawn) | > 10000 nM | – | 2.8 nM | 49 nM | – | –
O[C@H](COc1ccccc1F)CN1CCC2(CC1)OCc1c2ccc2ccccc12 | 1.1 nM | 100% | 1 nM | 52 nM | – | –
O[C@@H](COc1ccccc1F)CN1CCC2(CC1)OCc1c2ccc2ccccc12 | 21 nM | 92% | 6 nM | 120 nM | – | –
